Measurements from patent US20240325319A1, “INHIBITORS OF AMYLOID BETA OLIGOMERIZATION AND THERAPEUTIC USES THEREOF” (Northwestern University, priority 2021, published 2024).
Entries after “also recorded” stand apart in the source; their conditions may differ.

Columns and labels:
5×FAD mice = assay: Memory performance (novel object preference) in 5×FAD mice; assay type: in vivo
Protocol: FIG. 7. […] Preliminary results obtained in 11 month old mice treated with NU-9 for 4 weeks. Memory performance was evaluated before and after treatment with vehicle or NU-9.
In a preliminary experiment using a mouse model of Alzheimer's disease, NU-9 protected against memory loss. Twelve 5×FAD mice were bred on the slow-onset background. These animals received either vehicle control or NU-9 by gavage (20 mg/kg) daily for one month. In the control group, all animals failed the memory task, showing no preference for the novel object. […] (FIG. 7).

preformed AβOs = assay: Binding of preformed AβOs to hippocampal neurons; assay type: cell-based, rat
Protocol: FIG. 11. […] Hippocampal neurons were treated with 3 μM NU-9 or vehicle for 30 min, then with Aβ monomer or preformed AβOs for 24 h. […] Neurons were stained with NU4 (anti-AβO antibody) and puncta per process were quantified.
FIG. 15. Mature hippocampal neurons were pre-treated with vehicle or 3 μM NU-9 for 30 min, then vehicle, 200 nM, or 500 nM AβO for 30 min. Then cells were fixed and labelled using anti-MAP2 (green, dendrites), DAPI (blue, nucleus), and NU2 (red, AβOs).
FIG. 19. Mature hippocampal neurons were treated first with 3 μM 9 for 30 min, and then with A) 30 or B) 200 nM LC AβOs for 30 min. Then, cells were fixed and labelled with anti-MAP2, DAPI, and NU2 (AβOs). The graphs show quantification of puncta/μm dendrite (30 images analyzed/condition, *** indicates p<0.001, ** p<0.01, * p<0.05).
If NU-9 did have some effect on preformed AβOs, this would support the alternate hypothesis that NU-9 removes AβO binding targets such as NKAα3 or PRP^c from the neuronal membrane^8-10.

[1] = target: T1, intracellular cathepsin L activity (Rattus norvegicus, UniProt P07154); assay: Intracellular cathepsin L activity in hippocampal neurons (Magic Red); assay type: cell-based; settings: hippocampal neurons treated with NU-9 30 minutes
T1 construct: endogenous in cells
T1 sequence (P07154 114-334): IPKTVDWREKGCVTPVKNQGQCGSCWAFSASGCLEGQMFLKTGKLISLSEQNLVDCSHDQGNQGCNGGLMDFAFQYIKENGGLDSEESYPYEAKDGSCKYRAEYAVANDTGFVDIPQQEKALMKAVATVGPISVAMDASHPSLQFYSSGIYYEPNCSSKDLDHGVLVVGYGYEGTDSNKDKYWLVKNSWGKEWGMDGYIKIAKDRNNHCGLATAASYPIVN
Protocol: FIG. 26. A) 0.0003-150 μM NU-9 was combined with purified cathepsin L enzyme in the presence of the cathepsin L substrate Z-FR-AMC. Cathepsin L enzyme activity was measured by the rate of 7-AMC production by fluorescence. Percent change in rate was quantified in the graph. […] B) Mature hippocampal neurons were treated with NU-9 for 30 minutes, then Magic Red was used to monitor intracellular cathepsin L activity. Cells were treated in 3 wells, and 9-22 images were analyzed per condition.
No effect of 0.0003-150 μM NU-9 was observed on the cathepsin L activity as measured by the production rate of 7-AMC from Z-FR-AMC by purified cathepsin L enzyme.

cathepsin B [2] = target: cathepsin B (Homo sapiens, UniProt P07858); assay: Purified cathepsin B enzyme activity (Z-RR-AMC to 7-AMC); assay type: biochemical; settings: NU-9 0.0003-30 μM
Protocol: FIG. 28. A) 0.0003-30 μM NU-9 was combined with purified cathepsin B enzyme in the presence of the cathepsin B substrate Z-RR-AMC. Cathepsin B enzyme activity was measured by the rate of 7-AMC production by fluorescence. Percent change in rate with NU-9 was quantified in the graph. […] B) Mature hippocampal neurons were treated with NU-9 for 30 minutes, then Magic Red was used to monitor intracellular cathepsin L activity. Cells were treated in 3 wells.

cathepsin B [3] = target: T2, cathepsin B (Rattus norvegicus, UniProt P00787); assay: Cathepsin B activity in hippocampal neurons (cell-based, Magic Red); settings: neurons treated with NU-9 30 minutes
T2 construct: endogenous in cells
T2 sequence (P00787 80-126 limits assumed): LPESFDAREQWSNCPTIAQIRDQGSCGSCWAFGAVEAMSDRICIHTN
T2 sequence (P00787 129-333 limits assumed): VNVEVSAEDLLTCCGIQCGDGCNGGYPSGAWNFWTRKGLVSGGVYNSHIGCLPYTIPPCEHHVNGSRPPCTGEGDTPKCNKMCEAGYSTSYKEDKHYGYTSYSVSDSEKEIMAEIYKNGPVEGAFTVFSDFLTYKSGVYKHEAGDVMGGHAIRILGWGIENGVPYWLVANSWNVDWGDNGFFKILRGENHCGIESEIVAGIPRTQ

AβOs = assay: Size of AβOs formed, molecular weight cutoff filters of 50 and 100 kDa; settings: 50 and 100 kDa cutoff filters; conflicting results from different blots
Description: Another area of investigation this quarter was the effect of NU-9 on the formation of different sizes of AβOs. Evidence from animal models and human samples indicate that that some species of AβOs are more toxic than others, and specifically that higher molecular weight oligomers (>50 kDa) may include the most Aβ-relevant species^15-16. To investigate whether NU-9 reduced the formation of high-molecular weight AβOs, I carried out several experiments using molecular weight cutoff filters of 50 and 100 kDa. However, conflicting results were obtained from different blots. […] The use of sufficient bioreplicates and thorough mixing is important for these experiments. These experiments may be revisited in the future, or the question of the type of AβOs targeted could be addressed through proteomics.

**Q.** Which “motor and exploratory behavior” value (5×FAD mice; 5×FAD mice treated with vehicle or NU-9 for 4 weeks) does the source give for `C[C@H](Oc1cc(C(F)(F)F)cc(C(F)(F)F)c1)C1CC(=O)CC(=O)C1` [NU-9, (S)-5-(1-(3,5-bis(trifluoromethyl)phenoxy)ethyl)cyclohexane-1,3-dione] here?
**A.** The value was “normal motor and exploratory behavior”.

**Q.** And the “protection against memory loss (preference for novel object)” value (5×FAD mice; 5×FAD mice, 11 month old, 20 mg/kg by gavage daily for one month, preliminary, 20 mg/kg)?
**A.** The value was “mitigated memory loss; also recorded: three of the four mice were protected from memory loss; also recorded: mitigates memory loss in older 5×FAD mice”.

**Q.** And the “binding of AβOs to hippocampal neurons (puncta/μm dendrite)” value (preformed AβOs; 3 μM 30 min, then 30 or 200 nM LC AβOs 30 min)?
**A.** Its value is “no effect on the binding of the AβOs to hippocampal neurons”.

**Q.** And the “binding of preformed AβOs to dendrites (puncta/μm)” value (preformed AβOs; 3 μM NU-9 30 min, then 200 or 500 nM AβO 30 min)?
**A.** The value was “has no effect on the binding of preformed AβOs; also recorded: no effect on binding to dendrites”.

**Q.** What about the “binding of preformed AβOs to neurons (NU4 puncta per process)” value (preformed AβOs; 3 μM NU-9 30 min, then preformed AβOs 24 h) of the same molecule?
**A.** The value was “does not reduce binding in neurons treated with premade AβOs; also recorded: does not reduce binding of preformed AβOs to neurons”.

**Q.** And the “intracellular cathepsin L activity” value [1]?
**A.** Its value is “not observed to modulate intracellular cathepsin L activity”.

**Q.** What about the “cathepsin B activity (cleavage of Z-RR-AMC to 7-AMC)” value (cathepsin B [2]) of the same molecule?
**A.** Its value is “Minimal effect”.

**Q.** And the “cathepsin B activity in hippocampal neurons” value (cathepsin B [3])?
**A.** The value was “not observed to alter cathepsin B activity”.

**Q.** And the “change in AβO size species” value (AβOs)?
**A.** Its value is “reduction in 50-100 kDa species was observed, alongside an increase in small species (<50 kDa); also recorded: reduction in most species was observed, except in small species (<50 kDa)”.
